According to patent publication US9382267B2, “Small molecule inhibitors of nicotinamide phosphoribosyltransferase (NAMPT)” (The Curators of the University of Missouri, priority 2011, dated 2016):
Like-named read-outs stand apart in the source and are kept apart here.

Columns and labels:
A549 cells = assay: Cell rescue assay with nicotinamide mononucleotide (NMN); format: cell-based, human; settings: A549 cells treated with 10 nM agent; 1, 10 or 100 μM NMN; 72 h; MTT
Experimental: A549 cells were treated with 10 nM (1), (5), (6), or (7). Error bars represent the mean±SD. Cell viability was measured using the MTT assay. Each measurement was repeated 4 times.
Cell rescue assays were conducted using Nicotinamide Mononucleotide (NMN) as described by Busso et al. (Busso, N.; Karababa, M.; Nobile, M.; Rolaz, A.; Van Gool, F.; Galli, M.; Leo, O.; So, A.; De Smedt, T. Pharmacological inhibition of nicotinamide phosphoribosyltransferase/visfatin enzymatic activityidentifies a new inflammatory pathway linked to NAD. PLoS One 2008, […], e2267.) Briefly, A549 and DLD1 cells were plated at a density of 10,000 cells per well in 96 well plates for overnight. Cells were then treated with 10 nM concentrations of agents (1), (5)-(7). Simultaneously, concentrations of 1, 10 or 100 μM NMN were added to the cultures. Cultures were then continued for 72 h. MTT reagent was added to the cells after 72 h for a period of 3 h and then MTT crystals were solubilized using solubilization buffer. Readings were taken at 570 nm wavelength. Control cells were considered as 100% survival to plot the inhibition and rescue graph. The experiments were repeated four times.

[1] = test system: T47D (Breast) human tumor cell line; assay: MTT assay, T47D; format: cell-based
Experimental: (§1) A549, DLD1, T47D and PC3 were purchased from ATCC (Manassas, Va.). MTT assay kit was purchased from Promega (Madison, Wis.). FK866 and NMN were purchased from Enzo Life Sciences (Farmingdale, N.Y.) and Sigma (St Louis, Mo.) respectively.
(§2) Additional MTT assays are show in FIGS. 11(A)-(D) and FIG. 12 for compounds (33)-(37).
(§3) The assay was performed according to the manufacturers protocol (CycLex NAMPT Colorimetric Assay Kit, MBL International Corp., Woburn, Mass.). The NAMPT assay was performed according manufacturers protocol. Briefly we used the “1-Step Assay Method” for which following reagents were mixed to make assay buffer and kept at ice before starting the assay: 10 μL each of 10× Nampt assay buffer, nicotinamide, PRPP, ATP and EtOH; 2 μL each of recombinant NMNAT1, WST-1, ADH, diaphorase and D2O. The Nampt inhibition assay was performed by mixing 2 μl of various concentrations (to make 1 pM-100 nM) of FK866 or (6) (or 2 μL DMSO as vehicle control) with the following: 2 μL recombinant Nampt and 36 μL D2O. The reaction was initiated by adding 60 μL of 1-Step Assay Buffer to each well and mixed thoroughly followed by incubation at 30° C. for 20 mins. After this period, the absorbance at 450 nm was measured and compared with the positive control. […] TABLE 4 lists measured Half-Maximal Inhibitory Concentrations (IC50) against Human Tumor Cell Lines A549 (Lung), DLD1 (Colon), and T47D (Breast).

DLD1 = assay: Scratch test (wound healing) assay; format: cell-based, human; settings: for relative potencies of the compounds: wound healing experiments, consistent with cell viability assays; for inhibition of cancer cell migration: 1 nM test agent, 24 h, FIG. 9
Experimental: The antimigratory effects of compounds (5)-(7) were compared with FK866 by employing a wound healing or scratch test analysis using various cell cancer lines. The assay measures the ability of a drug to inhibit cancer cell migration across a gap “scratched” in a confluent layer of cells. The cells were imaged immediately after the formation of the wound and then incubated with 1 nM concentrations of each test agent. After 24 h, the wounds were imaged again and compared with a control group of untreated cells. […] The results of the wound healing experiments are consistent with those from the cell viability assays with regard to the relative potencies of the compounds (6)>(7)>(5)>FK866.

[2] = test system: DLD1 (Colon) human tumor cell line; assay: MTT assay, DLD1; format: cell-based
Experimental: as §1, §2, §3

[3] = test system: A549 human lung cancer cell line; assay: MTT assay, A549; format: cell-based; settings: A549 (Lung) human tumor cell line
Experimental: as §1, §2, §3

Molecule	cell rescue by NMN (A549 cells)	IC50 [1]	relative potencies of the compounds (DLD1)	IC50 [2]	IC50 [3]	inhibition of cancer cell migration (DLD1)	IC50 ([2]; DLD-1)
1-(4′-(Trans-3″-(3′″-pyridyl)acrylamido)butyl)-1,12-dicarba-closo-dodecaborane [Compound 7]	nearly complete rescue	0.58 ± 0.03 nM	(6)>(7)>(5)>FK866	2.2 ± 0.12 nM	0.99 ± 0.03 nM		
1-(4′-(Trans-3″-(3′″pyridyl)acrylamido)butyl)-1,7-dicarba-closo-dodecaborane [Compound 6]	nearly complete rescue	0.32 ± 0.02 nM	(6)>(7)>(5)>FK866	0.31 ± 0.01 nM	0.41 ± 0.01 nM	highest potency	
O=C(/C=C/c1cccnc1)NCCCCC1CCN(C(=O)c2ccccc2)CC1 [Compound 1, reference compound]	nearly complete rescue	3.2 ± 0.16 nM	(6)>(7)>(5)>FK866		1.62 ± 0.04 nM	partially inhibited cell migration	3.14 ± 0.11 nM
O=C(/C=C/c1cccnc1)NCCC#CC12CC3CC(CC(C3)C1)C2 [Compound 4]		186 ± 4.1 nM			88.9 ± 1.1 nM		20.3 ± 0.44 nM
